Results from patent US20240270695A1, “COMPOUNDS, COMPOSITIONS AND METHODS OF TREATING DISORDERS” (Chengdu Anticancer Bioscience LTD, priority 2021, published 2024).

Assays:
[1] = system: RPE-Neo or RPE-MYC or RPE-MYC expressing an EGFP-Histone 2B fusion protein; assay: Phenotypic screening assay (arrest in mitosis, change in DNA content, cell death; GE IN-Cell Analyzer 2000); type: cell-based; details: Homo sapiens, compounds 20 nM to 20 μM, 24, 48 or 72 hours
[2] = system: RPE-Neo or RPE-MYC or RPE-MYC expressing an EGFP-Histone 2B fusion protein; assay: MTT assays of cellular proliferation; type: cell-based; details: Homo sapiens, min. effective conc., read-out: Proliferative arrest (<50%)
[3] = read-out: Min. Effective conc. for Polyploidy (≥10%)
[4] = min. effective conc., read-out: Cell Death (>30%)
[5] = min. effective conc., read-out: Mitotic Arrest (≥10%)

Row | SMILES | minimal effective concentration [1, 3] | minimal effective concentration [1, 4] | minimal effective concentration [1, 5] | minimal effective concentration [2]
1 | CNC(=O)C1=C(O)c2ccccc2N(Cc2ccc(F)c(OC)c2)C(=O)C1 [Example 112, 1-(4-fluoro-3-methoxybenzyl)-5-hydroxy-N-methyl-2-oxo-2,3-dihydro-1H-benzo[b]azepine-4-carboxamide] | 1 to 10 µM | 1 to 10 µM | 1 to 10 µM | 1 to 10 µM
2 | CNC(=O)C1=C(O)c2ccccc2N(Cc2cccc(OC)c2F)C(=O)C1 [Example 113, 1-(2-fluoro-3-methoxybenzyl)-5-hydroxy-N-methyl-2-oxo-2,3-dihydro-1H-benzo[b]azepine-4-carboxamide] | 10 to 30 µM | 10 to 30 µM | 10 to 30 µM | 10 to 30 µM
3 | CNC(=O)C1=C(O)c2ccccc2N(Cc2cc(F)ccc2OC)C(=O)C1 [Example 114, 1-(5-fluoro-2-methoxybenzyl)-5-hydroxy-N-methyl-2-oxo-2,3-dihydro-1H-benzo[b]azepine-4-carboxamide] | 1 to 10 µM | 1 to 10 µM | 1 to 10 µM | 1 to 10 µM
4 | CNC(=O)C1=C(O)c2ccccc2N(Cc2cc(F)ccc2C)C(=O)C1 [Example 115, 1-(5-fluoro-2-methylbenzyl)-5-hydroxy-N-methyl-2-oxo-2,3-dihydro-1H-benzo[b]azepine-4-carboxamide] | 30 to 1000 µM | 30 to 1000 µM | 10 to 30 µM | 30 to 1000 µM
5 | CNC(=O)C1=C(O)c2ccccc2N(Cc2ccc(F)c(Cl)c2)C(=O)C1 [Example 116, 1-(3-chloro-4-fluorobenzyl)-5-hydroxy-N-methyl-2-oxo-2,3-dihydro-1H-benzo[b]azepine-4-carboxamide] | 30 to 1000 µM | 30 to 1000 µM | 30 to 1000 µM | 30 to 1000 µM
6 | CNC(=O)C1=C(O)c2ccccc2N(Cc2ccc(F)c(C#N)c2)C(=O)C1 [Example 117, 1-(3-cyano-4-fluorobenzyl)-5-hydroxy-N-methyl-2-oxo-2,3-dihydro-1H-benzo[b]azepine-4-carboxamide] | 30 to 1000 µM | 30 to 1000 µM | 30 to 1000 µM | 30 to 1000 µM
7 | CNC(=O)C1=C(O)c2ccccc2N(Cc2ccc(F)c(C(F)(F)F)c2)C(=O)C1 [Example 118, 1-(4-fluoro-3-(trifluoromethyl)benzyl)-5-hydroxy-N-methyl-2-oxo-2,3-dihydro-1H-benzo[b]azepine-4-carboxamide] | 30 to 1000 µM | 30 to 1000 µM | 30 to 1000 µM | 30 to 1000 µM
8 | CNC(=O)C1=C(O)c2ccccc2N(Cc2ccc(C)c(Cl)c2)C(=O)C1 [Example 119, 1-(3-chloro-4-methylbenzyl)-5-hydroxy-N-methyl-2-oxo-2,3-dihydro-1H-benzo[b]azepine-4-carboxamide] | 10 to 30 µM | 10 to 30 µM | 10 to 30 µM | 10 to 30 µM
9 | CNC(=O)C1=C(O)c2ccccc2N(Cc2ccc(C)c(Br)c2)C(=O)C1 [Example 120] | 10 to 30 µM | 10 to 30 µM | 10 to 30 µM | 10 to 30 µM
10 | CNC(=O)C1=C(O)c2ccccc2N(Cc2cc(C)c(F)c(C)c2)C(=O)C1 [Example 121, 1-(4-fluoro-3,5-dimethylbenzyl)-5-hydroxy-N-methyl-2-oxo-2,3-dihydro-1H-benzo[b]azepine-4-carboxamide] | 10 to 30 µM | 10 to 30 µM | 10 to 30 µM | 10 to 30 µM
11 | CNC(=O)C1=C(O)c2ccccc2N(Cc2cc(F)c(OC)c(F)c2)C(=O)C1 [Example 122, 1-(3,5-difluoro-4-methoxybenzyl)-5-hydroxy-N-methyl-2-oxo-2,3-dihydro-1H-benzo[b]azepine-4-carboxamide] | 30 to 1000 µM | 30 to 1000 µM | 30 to 1000 µM | 30 to 1000 µM
12 | CNC(=O)C1=C(O)c2ccccc2N(Cc2ccc(OC)c(C(F)(F)F)c2)C(=O)C1 [Example 123, 5-hydroxy-1-(4-methoxy-3-(trifluoromethyl)benzyl)-N-methyl-2-oxo-2,3-dihydro-1H-benzo[b]azepine-4-carboxamide] | 30 to 1000 µM | 30 to 1000 µM | 30 to 1000 µM | 30 to 1000 µM
13 | CNC(=O)C1=C(O)c2ccccc2N(Cc2ccc(Cl)c(F)c2)C(=O)C1 [Example 124, 1-(4-chloro-3-fluorobenzyl)-5-hydroxy-N-methyl-2-oxo-2,3-dihydro-1H-benzo[b]azepine-4-carboxamide] | 1 to 10 µM | 1 to 10 µM | 1 to 10 µM | 1 to 10 µM
14 | CNC(=O)C1=C(O)c2ccccc2N(Cc2ccc(Br)c(F)c2)C(=O)C1 [Example 125, 1-(4-bromo-3-fluorobenzyl)-5-hydroxy-N-methyl-2-oxo-2,3-dihydro-1H-benzo[b]azepine-4-carboxamide] | 1 to 10 µM | 1 to 10 µM | 1 to 10 µM | 1 to 10 µM
15 | CNC(=O)C1=C(O)c2ccc(OC)cc2N(Cc2ccc(C)c(F)c2)C(=O)C1 [Example 127, 1-(3-fluoro-4-methylbenzyl)-5-hydroxy-8-methoxy-N-methyl-2-oxo-2,3-dihydro-1H-benzo[b]azepine-4-carboxamide] | 0.001 to 1 µM | 0.001 to 1 µM | 0.001 to 1 µM | 0.001 to 1 µM
16 | CCOc1ccc2c(c1)N(Cc1ccc(C)c(F)c1)C(=O)CC(C(=O)NC)=C2O [Example 128, 8-ethoxy-1-(3-fluoro-4-methylbenzyl)-5-hydroxy-N-methyl-2-oxo-2,3-dihydro-1H-benzo[b]azepine-4-carboxamide] | 1 to 10 µM | 1 to 10 µM | 1 to 10 µM | 1 to 10 µM
17 | CNC(=O)C1=C(O)c2ccc(OC(F)F)cc2N(Cc2ccc(C)c(F)c2)C(=O)C1 [Example 129, 8-(difluoromethoxy)-1-(3-fluoro-4-methylbenzyl)-5-hydroxy-N-methyl-2-oxo-2,3-dihydro-1H-benzo[b]azepine-4-carboxamide] | 0.001 to 1 µM | 0.001 to 1 µM | 0.001 to 1 µM | 0.001 to 1 µM
18 | CNC(=O)C1=C(O)c2ccc(Br)cc2N(Cc2ccc(F)c(C)c2)C(=O)C1 [Example 132, 8-bromo-1-(4-fluoro-3-methylbenzyl)-5-hydroxy-N-methyl-2-oxo-2,3-dihydro-1H-benzo[b]azepine-4-carboxamide] | 1 to 10 µM | 1 to 10 µM | 1 to 10 µM | 1 to 10 µM
19 | CNC(=O)C1=C(O)c2ccc(OCc3ccc(OC)c(F)c3)cc2N(Cc2ccc(C)c(F)c2)C(=O)C1 [Example 133, 8-((3-fluoro-4-methoxybenzyl)oxy)-1-(3-fluoro-4-methylbenzyl)-5-hydroxy-N-methyl-2-oxo-2,3-dihydro-1H-benzo[b]azepine-4-carboxamide] | 1 to 10 µM | 1 to 10 µM | 1 to 10 µM | 1 to 10 µM
20 | CNC(=O)C1=C(O)c2ccc(OCc3ccsc3)cc2N(Cc2ccc(C)c(F)c2)C(=O)C1 [Example 134, 1-(3-fluoro-4-methylbenzyl)-5-hydroxy-N-methyl-2-oxo-8-(thiophen-3-ylmethoxy)-2,3-dihydro-1H-benzo[b]azepine-4-carboxamide] | 1 to 10 µM | 1 to 10 µM | 1 to 10 µM | 1 to 10 µM
21 | CNC(=O)C1=C(O)c2cc(F)ccc2N(Cc2ccc(C)c(F)c2)C(=O)C1 [Example 135, 7-fluoro-1-(3-fluoro-4-methylbenzyl)-5-hydroxy-N-methyl-2-oxo-2,3-dihydro-1H-benzo[b]azepine-4-carboxamide] | 1 to 10 µM | 1 to 10 µM | 1 to 10 µM | 1 to 10 µM
22 | CNC(=O)C1=C(O)c2cc(C)ccc2N(Cc2ccc(C)c(F)c2)C(=O)C1 [Example 136, 1-(3-fluoro-4-methylbenzyl)-5-hydroxy-N,7-dimethyl-2-oxo-2,3-dihydro-1H-benzo[b]azepine-4-carboxamide] | 1 to 10 µM | 1 to 10 µM | 1 to 10 µM | 1 to 10 µM
23 | CNC(=O)C1=C(O)c2cc(OC)ccc2N(Cc2ccc(C)c(F)c2)C(=O)C1 [Example 137, 1-(3-fluoro-4-methylbenzyl)-5-hydroxy-7-methoxy-N-methyl-2-oxo-2,3-dihydro-1H-benzo[b]azepine-4-carboxamide] | 1 to 10 µM | 1 to 10 µM | 1 to 10 µM | 1 to 10 µM
24 | CNC(=O)C1=C(O)c2ccc(-c3cnn(C)c3)cc2N(Cc2ccc(C)c(F)c2)C(=O)C1 [Example 138, 1-(3-fluoro-4-methylbenzyl)-5-hydroxy-N-methyl-8-(1-methyl-1H-pyrazol-4-yl)-2-oxo-2,3-dihydro-1H-benzo[b]azepine-4-carboxamide] | 1 to 10 µM | 1 to 10 µM | 1 to 10 µM | 1 to 10 µM
25 | CNC(=O)C1=C(O)c2ccc(C#N)cc2N(Cc2ccc(C)c(F)c2)C(=O)C1 [Example 139] | 1 to 10 µM | 1 to 10 µM | 1 to 10 µM | 1 to 10 µM
